# Test results published in US20240150322A1, “CDK9 Inhibitors” (Biolexis Therapeutics, Inc., priority 2022, published 2024).
# Where two headings read alike, the source gives them in different places.
# Legend:
# NCI-H660 = assay: 2D CellTiter-Glo cell viability assay; format: cell-based; settings: NCI-H660, 72 hours
# Experimental: (§1) CellTiter-Glo® 2.0 Luminescent cell viability assay reagent was purchased from Promega and 22Rv1 and LASCPC-01 cell lines were purchased from ATCC. […] An equal volume of CellTiter-Glo 2D Reagent was added to the cell suspensions and luminescence was recorded after 30-minute incubation period. […] FIG. 2 illustrates cellular antiproliferative efficacy of a benchmark CDK9 inhibitor AD-4573 on six prostate cancer cell lines over various concentrations.
# (§2) CellTiter-Glo® 2.0 Luminescent cell viability assay reagent was purchased from Promega and 22Rv1, LASCPC-01, C4-2, C4-2B and NCI-H660, DU-145, PC-3 and LNCap cell lines were obtained from ATCC and a clinical core facility at Huntsman Cancer Institute. […] The results of cell viability were obtained and IC50 values were calculated (see Table 5, below) showing sub-micromolar cell killing of these prostate cancer cells.
# DU-145 = assay: 2D CellTiter-Glo cell viability assay; format: cell-based; settings: Homo sapiens; DU-145, 72 hours
# Experimental: as §1, §2
# LASCPC-01 = assay: 2D CellTiter-Glo cell viability assay; format: cell-based; settings: LASCPC-01, 72 hours
# Experimental: as §1, §2
# 22Rv1 = assay: 2D CellTiter-Glo cell viability assay; format: cell-based; settings: Homo sapiens; 22Rv1, 72 hours
# Experimental: as §1, §2
# LNCap = assay: 2D CellTiter-Glo cell viability assay; format: cell-based; settings: Homo sapiens, 72 hours
# Experimental: as §1, §2
# [1] = tested on: C4-2 human neuroendocrine prostate cancer xenograft; assay: In vivo tumor efficacy study 3, C4-2 xenograft
# CDK3/cyclinE = CDK3/cyclinE (Homo sapiens, UniProt Q00526); assay: DiscoveRx KINOMEscan Kd (KdELECT); format: binding
# Chain of CDK3/cyclinE (Q00526 whole entry): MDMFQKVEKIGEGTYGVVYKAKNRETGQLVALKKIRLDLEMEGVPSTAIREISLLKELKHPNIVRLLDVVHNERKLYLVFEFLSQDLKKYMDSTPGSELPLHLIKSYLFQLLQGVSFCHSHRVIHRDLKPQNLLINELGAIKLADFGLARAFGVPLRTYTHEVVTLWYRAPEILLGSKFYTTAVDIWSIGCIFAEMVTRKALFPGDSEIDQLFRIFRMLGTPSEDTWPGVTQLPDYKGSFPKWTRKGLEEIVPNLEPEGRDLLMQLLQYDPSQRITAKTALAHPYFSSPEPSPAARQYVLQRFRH
# Experimental: (§3) CDKs family kinases profiling assays were performed with DiscoveRx Matrix of Kds KINOMEscan (KdELECT) and Reaction Biology using miniaturized radioisotope-based assay platform (^33P). IC50 value estimated based on the best curve fitting available.
# CDK2/cyclinA = CDK2/cyclinA (Homo sapiens, UniProt P24941); assay: DiscoveRx KINOMEscan Kd (KdELECT); format: binding
# Experimental: as §3
# CDK4/cyclinD [2] = molecular target: T1, CDK4/cyclinD (Homo sapiens, UniProt P11802); assay: DiscoveRx KINOMEscan Kd (KdELECT); format: binding
# T1 sequence (P11802 whole entry): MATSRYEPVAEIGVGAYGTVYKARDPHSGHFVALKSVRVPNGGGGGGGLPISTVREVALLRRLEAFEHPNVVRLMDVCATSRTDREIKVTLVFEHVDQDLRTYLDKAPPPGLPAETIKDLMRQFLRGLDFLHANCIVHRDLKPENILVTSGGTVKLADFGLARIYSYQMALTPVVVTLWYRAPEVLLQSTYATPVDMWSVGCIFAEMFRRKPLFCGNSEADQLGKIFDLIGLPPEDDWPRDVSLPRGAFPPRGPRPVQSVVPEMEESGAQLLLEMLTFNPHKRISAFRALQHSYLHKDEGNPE
# T1 sequence (P24385 whole entry partner): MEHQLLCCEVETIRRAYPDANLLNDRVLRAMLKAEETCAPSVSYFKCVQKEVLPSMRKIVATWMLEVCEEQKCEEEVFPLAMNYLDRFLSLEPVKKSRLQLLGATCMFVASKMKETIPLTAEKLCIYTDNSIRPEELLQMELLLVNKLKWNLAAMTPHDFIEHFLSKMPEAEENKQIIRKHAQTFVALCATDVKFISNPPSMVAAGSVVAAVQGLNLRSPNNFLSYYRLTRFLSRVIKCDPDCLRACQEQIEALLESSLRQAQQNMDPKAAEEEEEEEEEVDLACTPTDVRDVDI
# Experimental: as §3
# PRKD3 = PRKD3 (Homo sapiens, UniProt O94806); assay: scanMAX panel and Kd follow-up; format: binding
# Chain of PRKD3 (O94806 whole entry): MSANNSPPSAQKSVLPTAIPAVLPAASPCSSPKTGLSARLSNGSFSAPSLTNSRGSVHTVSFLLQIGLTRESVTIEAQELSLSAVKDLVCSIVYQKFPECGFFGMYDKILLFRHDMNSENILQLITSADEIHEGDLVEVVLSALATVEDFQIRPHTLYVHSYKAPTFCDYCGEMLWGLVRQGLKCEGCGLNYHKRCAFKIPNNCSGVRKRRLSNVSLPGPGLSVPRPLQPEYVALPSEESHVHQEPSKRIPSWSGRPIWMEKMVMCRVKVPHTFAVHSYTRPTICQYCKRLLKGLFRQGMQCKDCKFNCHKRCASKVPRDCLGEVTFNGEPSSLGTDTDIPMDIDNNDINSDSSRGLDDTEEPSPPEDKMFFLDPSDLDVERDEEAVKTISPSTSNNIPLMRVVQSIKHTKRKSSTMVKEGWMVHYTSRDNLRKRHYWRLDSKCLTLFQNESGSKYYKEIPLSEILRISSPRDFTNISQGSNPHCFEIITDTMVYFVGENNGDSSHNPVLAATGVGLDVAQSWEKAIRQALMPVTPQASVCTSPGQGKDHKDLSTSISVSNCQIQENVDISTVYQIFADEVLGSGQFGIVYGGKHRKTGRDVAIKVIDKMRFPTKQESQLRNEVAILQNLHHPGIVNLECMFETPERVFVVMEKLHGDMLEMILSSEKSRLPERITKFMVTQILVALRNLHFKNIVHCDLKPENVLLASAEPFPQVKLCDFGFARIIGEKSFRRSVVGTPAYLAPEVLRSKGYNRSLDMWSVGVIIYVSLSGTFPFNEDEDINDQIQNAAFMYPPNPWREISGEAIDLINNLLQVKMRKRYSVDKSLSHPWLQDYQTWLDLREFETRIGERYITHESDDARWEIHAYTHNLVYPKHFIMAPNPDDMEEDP
# [3] = tested on: RWPE-1 Normal Prostate Cells; assay: LDH-Glo cytotoxicity assay in normal prostate cells; format: cell-based; settings: Homo sapiens, 72 hours
# Experimental: Multiplexing the LDH-Glo Cytotoxicity Assay and CellTiter-Glo 2D Cell Viability Assay. […] Change in toxicity was measured using the LDH-Glo Cytotoxicity Assay by combining 50 μL diluted samples with 50 μL LDH Detection Reagent and recording luminescence after 1 hour incubation. After samples were removed for LDH measurement, an equal volume of CellTiter Glo 2D Reagent was added to the remaining cell suspension and luminescence was recorded after 30-minute incubation period.
# CDK9/CycT1 = molecular target: T2, CDK9/CycT1 (Homo sapiens, UniProt P50750); assay: ADP-Glo kinase assay; format: biochemical
# T2 construct: purchased SignalChem
# Experimental: ADP-Glo assay kit was purchased from Promega and the CDK9/CycT1 protein and PDKtide substrate were purchased from SignalChem. […] The reaction was started by pre-incubating 4 μL of protein (20 nM), 2 μL of substrate (100 μM), and 2 μL of serial diluted drug in 1× assay buffer (50 mM HEPES, 3 mM MgCl2, 3 mM MnCl2, and 1 mM DTT) for 30 minutes. After pre-incubating, 4 μL of ATP (1 μM) was added to each well and incubated for an additional 90 minutes. The ADP-Glo Reagent (10 μL) and Kinase Detection Reagent (20 μL) were added to each well and incubated as recommended by Promega. The reaction was quantified by measuring luminescence and the IC50 was calculated using GraphPad Prism software.
# ERK8 = ERK8 (Homo sapiens, UniProt Q8TD08); assay: scanMAX panel and Kd follow-up; format: binding
# Chain of ERK8 (Q8TD08 whole entry): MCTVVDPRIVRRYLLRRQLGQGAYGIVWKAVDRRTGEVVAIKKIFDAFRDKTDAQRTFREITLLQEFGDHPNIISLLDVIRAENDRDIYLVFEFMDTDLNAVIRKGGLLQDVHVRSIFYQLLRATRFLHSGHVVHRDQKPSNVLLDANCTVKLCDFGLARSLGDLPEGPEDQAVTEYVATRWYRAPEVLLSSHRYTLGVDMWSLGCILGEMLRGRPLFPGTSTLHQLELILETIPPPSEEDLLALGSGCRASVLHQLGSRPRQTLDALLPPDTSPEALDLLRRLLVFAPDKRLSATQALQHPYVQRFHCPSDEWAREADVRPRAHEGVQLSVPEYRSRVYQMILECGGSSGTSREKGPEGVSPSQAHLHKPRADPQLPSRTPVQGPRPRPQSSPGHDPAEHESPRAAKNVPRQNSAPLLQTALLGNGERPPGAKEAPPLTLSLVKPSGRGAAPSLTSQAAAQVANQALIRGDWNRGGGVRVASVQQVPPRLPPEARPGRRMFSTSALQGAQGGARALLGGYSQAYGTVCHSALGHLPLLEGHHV
# [4] = Pharmacokinetic study in male Beagle dogs; format: in vivo; settings: dog, plasma; for Tmax: read-out: Tmax (hours), median (min-max); for Vd: male, Beagle, iv, 1 mg/kg
# Experimental: Last time of mean concentrations was 24 hours following intravenous bolus injection.
# [5] = Pharmacokinetic study in rat; settings: in vivo, po
# hERG channel = molecular target: T3, hERG channel (Homo sapiens, UniProt Q12809); assay: Predictor hERG Fluorescence Polarization Assay; format: binding
# T3 construct: purchased
# T3 sequence (Q12809 whole entry): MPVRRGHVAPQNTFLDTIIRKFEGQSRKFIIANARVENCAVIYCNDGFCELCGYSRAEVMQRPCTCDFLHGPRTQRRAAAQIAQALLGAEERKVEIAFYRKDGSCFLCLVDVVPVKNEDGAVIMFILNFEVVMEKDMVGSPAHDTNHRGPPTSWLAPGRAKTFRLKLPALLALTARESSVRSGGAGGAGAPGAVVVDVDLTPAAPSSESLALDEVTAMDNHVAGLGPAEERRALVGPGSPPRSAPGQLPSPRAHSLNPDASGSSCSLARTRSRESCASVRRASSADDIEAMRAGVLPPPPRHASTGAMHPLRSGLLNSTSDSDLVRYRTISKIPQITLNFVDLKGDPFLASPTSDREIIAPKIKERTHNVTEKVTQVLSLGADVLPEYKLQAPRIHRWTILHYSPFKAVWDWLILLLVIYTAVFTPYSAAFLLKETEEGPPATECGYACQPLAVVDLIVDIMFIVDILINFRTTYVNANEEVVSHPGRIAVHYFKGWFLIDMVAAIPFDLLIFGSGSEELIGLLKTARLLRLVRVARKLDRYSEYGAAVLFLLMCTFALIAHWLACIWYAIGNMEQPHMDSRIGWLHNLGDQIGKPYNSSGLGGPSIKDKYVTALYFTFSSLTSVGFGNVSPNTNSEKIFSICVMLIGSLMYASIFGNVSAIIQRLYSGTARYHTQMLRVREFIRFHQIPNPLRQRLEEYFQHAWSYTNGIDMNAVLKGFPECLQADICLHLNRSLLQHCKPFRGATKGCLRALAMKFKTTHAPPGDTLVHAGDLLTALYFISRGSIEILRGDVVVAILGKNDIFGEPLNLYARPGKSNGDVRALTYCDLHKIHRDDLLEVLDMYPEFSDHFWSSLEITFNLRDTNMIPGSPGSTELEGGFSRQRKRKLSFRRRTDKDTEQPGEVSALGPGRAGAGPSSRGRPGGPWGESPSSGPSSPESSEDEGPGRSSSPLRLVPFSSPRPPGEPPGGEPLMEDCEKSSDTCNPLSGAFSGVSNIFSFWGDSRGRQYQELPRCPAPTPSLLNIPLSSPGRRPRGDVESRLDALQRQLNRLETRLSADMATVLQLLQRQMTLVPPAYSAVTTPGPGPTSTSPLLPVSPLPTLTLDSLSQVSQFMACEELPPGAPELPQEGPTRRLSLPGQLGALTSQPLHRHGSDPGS
# Excerpt: The Predictor™ hERG Fluorescence Polarization Assay Kit was used to perform hERG channel biochemical binding studies in the absence of radioligand. Assay performance was validated with a panel of established hERG channel blockers.
# C4-2 = assay: Annexin V/7-AAD apoptosis assay; format: cell-based; settings: C4-2, treated for 72 hours
# [6] = tested on: pCDK9, pSer2, N-MYC, C-MYC and MCL-1; assay: Target modulation in prostate cancer patient samples; format: cell-based; settings: newly diagnosed and resistant prostate cancer patient samples
# CDK7/cyclinH = molecular target: T4, CDK7/cyclinH (Homo sapiens, UniProt P50613); assay: CDK family kinase profiling, radioisotope-based assay (33P); format: biochemical; settings: read-out: 10-dose IC50
# T4 construct: purchased Reaction Biology
# Experimental: as §3
# CDK9/cyclinT = molecular target: T5, CDK9/cyclinT (Homo sapiens, UniProt P50750); assay: as above; format: biochemical; settings: cell-free, read-out: IC50 against CDK9
# T5 construct: purchased Reaction Biology
# Experimental: as §3
# CDK5/P21 = molecular target: T6, CDK5/P21 (Homo sapiens, UniProt Q00535); assay: as above; format: biochemical; settings: read-out: 10-dose IC50
# T6 construct: purchased Reaction Biology
# T6 sequence (Q00535 whole entry): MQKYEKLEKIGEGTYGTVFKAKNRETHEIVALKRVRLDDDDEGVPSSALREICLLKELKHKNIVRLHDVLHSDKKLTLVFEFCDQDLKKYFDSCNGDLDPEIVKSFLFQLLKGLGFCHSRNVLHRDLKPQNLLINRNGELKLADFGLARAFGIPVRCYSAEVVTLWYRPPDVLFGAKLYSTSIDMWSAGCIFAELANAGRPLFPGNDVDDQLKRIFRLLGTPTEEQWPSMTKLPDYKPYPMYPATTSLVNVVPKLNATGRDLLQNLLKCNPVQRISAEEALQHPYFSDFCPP
# T6 sequence (Q15078 99-307 partner limits assumed): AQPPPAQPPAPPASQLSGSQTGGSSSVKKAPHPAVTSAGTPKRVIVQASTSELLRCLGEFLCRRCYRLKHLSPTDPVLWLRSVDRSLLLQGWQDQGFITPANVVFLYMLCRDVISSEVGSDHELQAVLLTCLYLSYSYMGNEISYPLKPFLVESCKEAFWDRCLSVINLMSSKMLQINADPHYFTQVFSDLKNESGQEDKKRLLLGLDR
# Experimental: as §3
# CDK4/cyclinD [7] = molecular target: T1, CDK4/cyclinD; assay: as above; format: biochemical; settings: read-out: 10-dose IC50
# Experimental: as §3
structure (smiles),measurement,setting,value
"CC(C)c1c2cc(-c3ccnc(N[C@H]4CC[C@H](N)C4)n3)ccc2nn1C [Compound I-2, (1S,3S)-[3-[4-(3-isopropyl-2-methylindazol-5-yl)pyrimidin-2-yl]aminocyclopentan-1-yl]-1,3-diamine]",IC50,NCI-H660,448 nM
same,IC50,DU-145,7720 nM
same,IC50,LASCPC-01; 72 h,58 nM
same,IC50,LASCPC-01,58 nM
same,IC50,22Rv1,132 nM
same,IC50,LNCap,80.4 nM
same,decrease in tumor weight as compared to vehicle control group,"[1]; C4-2, 50-30 mg/kg p.o., day 21",48.72%
same,tumor volume as compared to vehicle control group,"[1]; C4-2, 50-30 mg/kg p.o., days 18 to 21",significant decrease tumor volume
same,tumor growth inhibition from vehicle control group,"[1]; C4-2, 50-30 mg/kg p.o., terminal day 21",43.25%
same,body weight as compared to vehicle control group,"[1]; C4-2 study, 50-30 mg/kg p.o., starting at day 4",significant body weight loss
same,severe body weight loss,"[1]; C4-2 study, mouse that died",~15%
same,Kd,CDK3/cyclinE,31 nM
same,Kd,CDK2/cyclinA,30 nM
same,Kd,CDK4/cyclinD [2],22 nM
same,Kd,PRKD3; PRKD3,230 nM
same,remaining binding at 1 µM,"PRKD3; PRKD3, 1 μM, read-out: % of control activity",0 to 1%
same,IC50,[3],6700 nM
same,IC50,CDK9/CycT1,< 50 nM
same,Kd,ERK8; ERK8,5.5 nM
same,remaining binding at 1 µM,"ERK8; ERK8, 1 μM, read-out: % of control activity",0 to 1%
same,half-life,[4]; IV 1 mg/kg,4.26 h
same,half-life,[4]; oral 3 mg/kg,5.81 h
same,AUC,[4]; IV 1 mg/kg,529 ± 200 ng·h/mL
same,AUC(0-inf),[4]; IV 1 mg/kg,566 ± 191 ng·h/mL
same,MRT,[4]; IV 1 mg/kg,3.82 ± 1.25 h
same,clearance,[4]; IV 1 mg/kg,31.8 ± 10.7 mL/min/kg
same,C0,"[4]; IV 1 mg/kg, extrapolated concentration at time zero",312 ± 98.3 ng/mL
same,Tmax,[4]; IV 1 mg/kg,0.08 h
same,AUC,[4]; oral 3 mg/kg,1300 ± 233 ng·h/mL
same,AUC(0-inf),[4]; oral 3 mg/kg,1340 ± 242 ng·h/mL
same,Cmax,[4]; oral 3 mg/kg,373 ± 238 ng/mL
same,MRT,[4]; oral 3 mg/kg,4.92 ± 0.97 h
same,bioavailability,"[4]; oral 3 mg/kg vs IV 1 mg/kg, from nominal doses and AUCinf, read-out: % F (oral bioavailability)",83 ± 22%
same,Tmax,[4]; oral 3 mg/kg,1 h
same,Vd,"[4]; IV 1 mg/kg, read-out: Vd",11.3 ± 2.93 L/kg
same,Vd,"[4]; IV 1 mg/kg, read-out: Vss",9.35 ± 2.74 L/kg
same,bioavailability,[5],38%
same,hERG activity,hERG channel,no hERG activity
same,IC50,hERG channel; fluorescence polarization,57800 nM
same,cell death,C4-2,84%
same,"pCDK9, pSer2 and downstream N-MYC, C-MYC and MCL-1",[6],reduced
same,IC50,CDK7/cyclinH,119 nM
same,IC50,CDK9/cyclinT,< 5 nM
same,IC50,CDK5/P21,245 nM
same,IC50,CDK4/cyclinD [7],22.8 nM
